{
  "source": "patent US10526660B2",
  "about": "“Methods for evaluating and treating Waldenstrom's macroglobulinemia” (Dana-Farber Cancer Institute, Inc., priority 2013, dated 2020)",
  "key": {"CXCR4^S338X MWCL-1 cells": {"tested_on": "CXCR4^S338X MWCL-1 cells", "assay": "PARP and caspase 3 cleavage by immunoblotting (apoptosis), MWCL-1", "type": "cell-based", "conditions": "for level of SDF-1a mediated rescue from PARP and caspase 3 cleavage: agents at EC50 dose ranges, 6 hours, SDF-1a 20 nM"}, "CXCR4^S338X BCWM.1 cells": {"tested_on": "CXCR4^S338X BCWM.1 cells", "assay": "PARP and caspase 3 cleavage by immunoblotting (apoptosis), BCWM.1", "type": "cell-based", "conditions": "for level of SDF-1a mediated rescue from PARP and caspase 3 cleavage: agents at EC50 dose ranges, 6 hours, SDF-1a 20 nM"}, "[1]": {"tested_on": "phospho-AKT, phospho-ERK and phospho-BTK", "assay": "SDF-1a triggered AKT, ERK and BTK signaling (phosphoflow, immunoblotting) in transduced BCWM.1 cells", "type": "cell-based"}, "BCWM.1 and MWCL-1 cells [2]": {"tested_on": "BCWM.1 and MWCL-1 cells", "assay": "Annexin V staining (apoptosis), Example 5", "type": "cell-based", "conditions": "18 hours"}, "BCWM.1 WM cells [3]": {"tested_on": "BCWM.1 WM cells", "conditions": "CXCR4 S338X transduced cells; 30 nM AMD3100; p<0.005", "description": "Five days after transduction, GFP positive cells were sorted and used for functional studies."}, "WHIM patients": {"tested_on": "WHIM patients", "conditions": "WHIM patients treated daily for 6 months; cited from earlier work"}, "BCWM.1 WM cells [4]": {"tested_on": "BCWM.1 WM cells", "assay": "Annexin V staining (apoptosis) of CXCR4 frameshift/nonsense mutant expressing BCWM.1 cells, Example 6", "type": "cell-based", "conditions": "CXCR4^T311fs and CXCR4^S344fs cells; for SDF-1a rescue of ibrutinib or idelalisib treated cells: MK-2206 0.5 uM, AS-703026 0.25 uM, 18 hours", "description": "CXCR4^WT, CXCR4^FS, CXCR4^S338X cDNAs were subcloned into plenti-IRES-GFP vector, and transduced using a lentiviral based strategy into BCWM.1 WM cells as before (Cao et al, 2014; Yang et al, 2013). Frameshift mutations proximal and distal to CXCR4^S338X that were identified in WM patients by WGS were studied (FIG. 11). […] The nonsense mutation CXCR4^S338X resulted from C>G change at 136872485 (Hunter et al, 2013). Five days after transduction, GFP positive cells were sorted and used for functional studies. Surface CXCR4 expression was determined at baseline, and following stimulation for 30 minutes with SDF-1a (10-100 nM) as before (Cao et al, 2014). Phosphoflow experiments were performed using conjugated antibodies to phospho-ERK1/2 (T^202/Y^204) and phospho-AKT(S^473) (BD Phosflow) as previously described (Cao et al, 2014). […] Survival studies related to AKT and ERK were performed in the presence or absence AKT (MK-2206, 0.5 uM) or MEK (AS-703026, 0.25 uM) specific inhibitors (Selleck Chemicals, Houston Tex.) as previously reported (Cao et al, 2014)."}, "BCWM.1 and MWCL-1 cells [5]": {"tested_on": "BCWM.1 and MWCL-1 cells", "conditions": "CXCR4^S338X expressing cells; co-treatment ibrutinib and AMD3100 30 uM", "experimental": "(§1) Five days after transduction, GFP positive cells were sorted and used for functional studies. Surface expression of CXCR4 was determined by flow cytometric analysis using a PE-conjugated anti-CXCR4 monoclonal antibody (BD Biosciences, San Jose Calif.). Transduced cell lines were stimulated with or without SDF-1a (10-100 nM), and cell surface expression of CXCR4 determined on CXCR4^WT and S338X transduced cells. CXCR4 expression levels were calculated as: [(receptor geometric mean fluorescence intensity [MFI] of treated cells-MFI of isotype IgG control)/(receptor geometric MFI of unstimulated cells-MFI of isotype IgG control)]×100."}, "CXCR4": {"tested_on": "CXCR4", "assay": "Cell surface CXCR4 expression by flow cytometry in transfected WM cells", "type": "cell-based", "experimental": "as §1"}, "pAKT and pERK": {"tested_on": "pAKT and pERK", "assay": "Immunohistochemical staining for pAKT and pERK in bone marrow of WM patients on ibrutinib", "type": "in vivo, human"}, "[6]": {"conditions": "CXCR4^S338X BCWM.1 and MWCL-1 cells"}, "[7]": {"conditions": "CXCR4^WT and CXCR4^S338X expressing BCWM.1 cells, pre-treatment 2 hours, AMD3100 30 uM or pertussis toxin 500 ng, SDF-1a 20 nM"}, "[8]": {"conditions": "SDF-1a cultured CXCR4^S338X BCWM.1 cells, AS-703026 0.25 uM, AZD-6244 0.5 uM, U0126 5.0 uM"}},
  "note": "Where two headings read alike, the source gives them in different places.",
  "data": [
    {"molecule": "Cn1c(CCCC(=O)O)nc2cc(N(CCCl)CCCl)ccc21", "note": "[bendamustine]", "values": [
      {"measurement": "level of SDF-1a mediated rescue from PARP and caspase 3 cleavage", "setting": "CXCR4^S338X MWCL-1 cells", "result": "little to no SDF-1a rescue"},
      {"measurement": "level of SDF-1a mediated rescue from PARP and caspase 3 cleavage", "setting": "CXCR4^S338X BCWM.1 cells", "result": "moderate"}
    ]},
    {"molecule": "N#CC(=C(/N)Sc1ccccc1N)/C(C#N)=C(\\N)Sc1ccccc1N", "note": "[U0126]", "values": [
      {"measurement": "inhibitory activity by western blot analysis for pERK (T202/Y204)", "setting": "[1]", "result": "confirmed"}
    ]},
    {"molecule": "c1cc(CN2CCCNCCNCCCNCC2)ccc1CN1CCCNCCNCCCNCC1", "note": "[AMD3100]", "values": [
      {"measurement": "Annexin V staining: effect of adding AMD3100 to cells treated with ibrutinib and SDF-1a", "setting": "BCWM.1 and MWCL-1 cells [2]", "result": "restoration of apoptotic changes"},
      {"measurement": "Annexin V studies: effect of AMD3100 on SDF-1a rescue of idelalisib treated cells", "setting": "BCWM.1 and MWCL-1 cells [2]; [6]", "result": "reversal of rescue"},
      {"measurement": "reversal of SDF-1a rescue by co-treatment with AMD3100", "setting": "CXCR4^S338X MWCL-1 cells; idelalisib, fludarabine and bortezomib treated cells, AMD3100 30 uM", "result": "reversal of SDF1-a rescue"},
      {"measurement": "block of CXCL12 rescue from ibrutinib growth effect", "setting": "BCWM.1 WM cells [3]", "result": "rescue could be blocked"},
      {"measurement": "myelokathexis related leukopenia", "setting": "WHIM patients", "result": "reversed myelokathexis related leukopenia"},
      {"measurement": "effect of concurrent CXCR4 antagonist on ibrutinib apoptosis in SDF-1a exposed cells", "setting": "BCWM.1 WM cells [4]; CXCR4^S338X, plerixafor 30 uM", "result": "restored the pro-apoptotic effects of ibrutinib"},
      {"measurement": "SDF-1a triggered AKT and ERK activation", "setting": "[1]; [7]", "result": "blocked both AKT and ERK activation"},
      {"measurement": "reversal of SDF-1a rescue from ibrutinib induced apoptosis", "setting": "BCWM.1 and MWCL-1 cells [5]", "result": "could be reversed"},
      {"measurement": "reversal of SDF-1a mediated rescue by co-treatment with AMD3100", "setting": "CXCR4^S338X BCWM.1 cells; all agents (bendamustine, fludarabine, bortezomib, idelalisib), AMD3100 30 uM", "result": "reversal of rescue"}
    ]},
    {"molecule": "CC[C@H](Nc1ncnc2[nH]cnc12)c1nc2cccc(F)c2c(=O)n1-c1ccccc1", "note": "[idelalisib]", "values": [
      {"measurement": "Annexin V studies: SDF-1a rescue", "setting": "BCWM.1 and MWCL-1 cells [2]; [6]", "result": "pronounced rescue by SDF-1a"},
      {"measurement": "level of SDF-1a mediated rescue from PARP and caspase 3 cleavage", "setting": "CXCR4^S338X MWCL-1 cells", "result": "moderate level of rescue"},
      {"measurement": "level of SDF-1a mediated rescue from PARP and caspase 3 cleavage", "setting": "CXCR4^S338X BCWM.1 cells", "result": "strong"}
    ]},
    {"molecule": "O=C(NC[C@H](O)CO)c1ccncc1Nc1ccc(I)cc1F", "note": "[AS-703026]", "values": [
      {"measurement": "SDF-1a rescue of ibrutinib or idelalisib treated cells", "setting": "BCWM.1 WM cells [4]", "result": "attenuated SDF-1a rescue"},
      {"measurement": "inhibitory activity by western blot analysis for pERK (T202/Y204)", "setting": "[1]; [8]", "result": "confirmed"}
    ]},
    {"molecule": "Nc1nc(F)nc2c1ncn2[C@@H]1O[C@H](CO)[C@@H](O)[C@@H]1O", "note": "[fludarabine]", "values": [
      {"measurement": "level of SDF-1a mediated rescue from PARP and caspase 3 cleavage", "setting": "CXCR4^S338X MWCL-1 cells", "result": "lesser levels of rescue"},
      {"measurement": "level of SDF-1a mediated rescue from PARP and caspase 3 cleavage", "setting": "CXCR4^S338X BCWM.1 cells", "result": "moderate"}
    ]},
    {"molecule": "CC(C)C[C@H](NC(=O)[C@H](Cc1ccccc1)NC(=O)c1cnccn1)B(O)O", "note": "[bortezomib]", "values": [
      {"measurement": "level of SDF-1a mediated rescue from PARP and caspase 3 cleavage", "setting": "CXCR4^S338X MWCL-1 cells", "result": "lesser levels of rescue"},
      {"measurement": "level of SDF-1a mediated rescue from PARP and caspase 3 cleavage", "setting": "CXCR4^S338X BCWM.1 cells", "result": "moderate"}
    ]},
    {"molecule": "C=CC(=O)N1CCC[C@@H](n2nc(-c3ccc(Oc4ccccc4)cc3)c3c(N)ncnc32)C1", "note": "[ibrutinib, 1-[(3R)-3-[4-amino-3-(4-phenoxyphenyl)pyrazolo[3,4-d]pyrimidin-1-yl]piperidin-1-yl]prop-2-en-1-one]", "values": [
      {"measurement": "Annexin V staining: SDF-1a effect on ibrutinib mediated apoptotic changes", "setting": "BCWM.1 and MWCL-1 cells [2]; ibrutinib plus SDF-1a", "result": "rescue of ibrutinib mediated apoptotic changes by SDF-1a"},
      {"measurement": "cell surface CXCR4 expression following ibrutinib treatment", "setting": "CXCR4; CXCR4^WT or CXCR4^S338X expressing WM cells, 0.5, 1, 2, and 6 hours", "result": "little or no significant changes"},
      {"measurement": "SDF-1a related changes in cell surface CXCR4 expression", "setting": "CXCR4; vector only, CXCR4^WT and CXCR4^S338X transfected WM cells, addition of ibrutinib", "result": "did not affect"},
      {"measurement": "pAKT staining in bone marrow on continuous ibrutinib therapy", "setting": "pAKT and pERK; CXCR4^WHIM patients, 6 months", "result": "remained robust without any changes from baseline"},
      {"measurement": "pAKT staining in bone marrow on continuous ibrutinib therapy", "setting": "pAKT and pERK; CXCR4^WT patients", "result": "marginal pAKT staining"},
      {"measurement": "pERK staining in bone marrow despite ibrutinib therapy", "setting": "pAKT and pERK; all patients, regardless of CXCR4 mutation status", "result": "low levels of pERK staining"},
      {"measurement": "BTK signaling", "setting": "[1]", "result": "blocked BTK signaling"},
      {"measurement": "SDF-1a triggered AKT and ERK activation", "setting": "[1]", "result": "attenuated"},
      {"measurement": "SDF-1a triggered AKT and ERK signaling", "setting": "[1]", "result": "did not show attenuation"}
    ]},
    {"molecule": "Cn1cnc2c(F)c(Nc3ccc(Br)cc3Cl)c(C(=O)NOCCO)cc21", "note": "[AZD-6244]", "values": [
      {"measurement": "inhibitory activity by western blot analysis for pERK (T202/Y204)", "setting": "[1]; [8]", "result": "confirmed"}
    ]},
    {"molecule": "NC1(c2ccc(-c3nc4ccn5c(=O)[nH]nc5c4cc3-c3ccccc3)cc2)CCC1", "note": "[MK-2206]", "values": [
      {"measurement": "SDF-1a rescue of ibrutinib or idelalisib treated cells", "setting": "BCWM.1 WM cells [4]", "result": "attenuated SDF-1a rescue"},
      {"measurement": "inhibitory activity by western blot analysis for pAKT (S473)", "setting": "[1]; SDF-1a cultured CXCR4^S338X BCWM.1 cells, 0.5 uM", "result": "confirmed"}
    ]},
    {"molecule": "pertussis toxin", "values": [
      {"measurement": "SDF-1a triggered AKT and ERK activation", "setting": "[1]; [7]", "result": "blocked both AKT and ERK activation"}
    ]},
    {"molecule": "AZD-5363", "values": [
      {"measurement": "inhibitory effect on AKT (phospho-activity of downstream targets GKS3β and pS6)", "setting": "[1]; CXCR4^S338X BCWM.1 cells, 0.5 uM", "result": "confirmed by inhibition of the phospho-activity"}
    ]}
  ]
}
